Assays:
GPNMB = GPNMB levels in CSF and brain homogenates of CBE treated mice by ELISA; format: in vivo
Protocol: (§1) C57BL/6OlaHsd mice were used as another model of nGD, in which the disease is induced by intra-peritoneal (IP) injection with 100 mg/Kg/day conduritol b epoxide ([…], calbiochem), an irreversible GCase inhibitor.
Mice were anesthetized (100mg/kg Ketamine and 10 mg/Kg xylazine) and CSF was aspired from the Cisterna magna using glass needles. Brain tissues were removed and lysed in ˜6 volumes of Ripa buffer (150 mM sodium chloride, 1.0% Triton X-100, 0.5% sodium deoxycholate, 0.1% SDS, 50 mM Tris, pH 8.0) supplemented with a protease inhibitor mixture (Sigma). Following homogenization, samples were centrifuged at 4500gav for 5 min at 4° C., and the supernatant was collected. Protein level was quantified using the BCA protein assay reagent (Pierce Chemical Co.) GPNMB was measured using the mouse GPNMB ELISA kit (R&D systems) According to manufacturer's protocol.
(§2) Correlation of CSF levels of GPNMB and nGD symptoms was further verified using an additional mouse model of GD, where mice are induced for GD by injections of conduritol b epoxide (CBE), a GCase inhibitor. 100 mg/Kg/day of CBE were daily injected into mice starting on day 15 post-natal. On day 30 the mice were divided into three groups: “CBE D15-30” in which CBE injections were ceased on day 30, “CBE D15-30; PBS D31-41” in which CBE injections were ceased on day 30 and the mice continued to receive phosphate buffered saline (PBS) injections until day 41, and “CBE D15-41”, in which CBE injections were continued to day 41. An additional group of mice was injected with PBS during the entire experiment (“PBS”) and served as a control (FIG. 4A). Mice body weight, a simple indicator of disease progression, was measured daily during the experiment and the results are shown in FIG. 4B.
CSF was aspirated from the Cisterna magna of the mice and GPNMB levels were measured in both CSF (FIG. 4C) and brain homogenates (FIG. 4D) by ELISA. […] Remarkably, GPNMB levels rapidly declined during the recovery period. More specifically, GPNMB levels in the CSF and brain increased upon injection of CBE from day 15-30 and to a higher extent with injection until day 41.

[1] = Body weight of mice induced for GD by daily CBE injections; format: in vivo, C57BL/6OlaHsd mice
Protocol: as §1, §2

[2] = Therapeutic effect on the brain in Type 3 GD patients on long-term ERT and miglustat; format: in vivo, human; conditions: long-term treatment
Text: Spinal fluid samples were collected for biomarker discovery from patients with Type 3 GD and age-matched control subjects.

[3] = compared with mice continuously treated with CBE until day 41

With `O[C@H]1[C@H](O)[C@@H](O)[C@@H]2O[C@@H]2[C@@H]1O` (racemic) [CBE, conduritol b epoxide] the “GPNMB level in CSF” value (GPNMB; CBE treated mice vs PBS control, ELISA) was “marked elevation”, the “GPNMB level in brain” value (GPNMB; CBE treated mice vs PBS control, brain homogenates, ELISA) was “marked elevation” and the “GPNMB level in CSF on day 41 after cessation of CBE on day 30” value (GPNMB; [3]) was “significantly lower level”. For the same compound, the “GPNMB level in brain on day 41 after cessation of CBE on day 30” value (GPNMB; [3]) was “significantly lower level”, the “time until body weight began to decrease after beginning CBE injections” value ([1]; 100 mg/Kg/day IP daily from day 15 post-natal, body weight as indicator of disease progression) was 10 to 12 days and the “body weight course after CBE injections ceased” value ([1]; CBE D15-30, PBS D31-41 group) was “began to gain weight”. The “body weight course with continued CBE injections” value ([1]; CBE D15-41 group, 100 mg/Kg/day) was “continued to decrease until day 41”.

For `CCCCN1C[C@H](O)[C@@H](O)[C@H](O)[C@H]1CO` [miglustat], the “therapeutic effect on the brain” value [2] was “neither had any therapeutic effect on the brain”.
